Results as given in US12077503B2, “Substituted cyclic amides and their use as herbicides” (FMC CORPORATION, priority 2015, dated 2024).

Tests used:
Format in all cases: in vivo
[1] = test system: ryegrass, Italian (Italian ryegrass, Lolium multiflorum); experiment: Test A preemergence; details: for Plant response rating, Ryegrass, Italian: 125 g ai/ha; for Ryegrass, Italian plant response rating (0 to 100 scale, 0 is no effect, 100 is complete control): 500 g ai/ha, visual injury approx. 10 d
Procedure, shortened: (§1)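 Each rating is a visual injury score from 0 to 100 given about 10 d after treatment, judged against untreated controls kept alongside in the greenhouse. In loam soil–sand blend, seeds got a preemergence directed soil spray, while postemergence plants were 2 to 10 cm tall at spraying.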

[2] = test system: barnyardgrass (Echinochloa crus-galli); experiment: Test A preemergence; details: for Plant response rating, Barnyardgrass: 125 g ai/ha; for Barnyardgrass plant response rating (0 to 100 scale, 0 is no effect, 100 is complete control): 500 g ai/ha, visual injury approx. 10 d
Procedure, shortened: as §1

[3] = test system: Kochia (Kochia scoparia); experiment: Test A preemergence; details: for Plant response rating, Kochia: 125 g ai/ha; for Kochia plant response rating (0 to 100 scale, 0 is no effect, 100 is complete control): 500 g ai/ha, visual injury approx. 10 d
Procedure, shortened: as §1

[4] = test system: giant foxtail (Setaria faberii); experiment: Test A preemergence; details: for Plant response rating, Foxtail, Giant: 125 g ai/ha; for Foxtail, Giant plant response rating (0 to 100 scale, 0 is no effect, 100 is complete control): 500 g ai/ha, visual injury approx. 10 d
Procedure, shortened: as §1

[5] = test system: ragweed (common ragweed, Ambrosia elatior); experiment: Test A preemergence; details: for Plant response rating, Ragweed: 125 g ai/ha
Procedure, shortened: as §1

[6] = test system: pigweed (Amaranthus retroflexus); experiment: Test A preemergence; details: for Plant response rating, Pigweed: 125 g ai/ha; for Pigweed plant response rating (0 to 100 scale, 0 is no effect, 100 is complete control): 500 g ai/ha, visual injury approx. 10 d
[7] = test system: sedge, umbrella (small-flower umbrella sedge, Cyperus difformis); experiment: Test C flooded paddy test; details: Flood, 0 is no effect, 100 is complete control
Description: (§2) Plant species in the flooded paddy test consisted of rice (Oryza sativa), sedge, umbrella (small-flower umbrella sedge, Cyperus difformis), ducksalad (Heteranthera limosa), and barnyardgrass (Echinochloa crus-galli) grown to the 2-leaf stage for testing. At time of treatment, test pots were flooded to 3 cm above the soil surface, treated by application of test compounds directly to the paddy water, and then maintained at that water depth for the duration of the test. Treated plants and controls were maintained in a greenhouse for 13 to 15 d, after which time all species were compared to controls and visually evaluated. Plant response ratings, summarized in Table C, are based on a scale of 0 to 100 where 0 is no effect and 100 is complete control. A dash (-) response means no test result.

[8] = test system: ducksalad (Heteranthera limosa); experiment: Test C flooded paddy test; details: Flood, 0 is no effect, 100 is complete control
Description: as §2

[9] = test system: barnyardgrass (Echinochloa crus-galli); experiment: Test C flooded paddy test; details: Flood, 0 is no effect, 100 is complete control
Description: as §2

[10] = test system: rice (Oryza sativa); experiment: Test C flooded paddy test; details: Flood, 0 is no effect, 100 is complete control
Description: as §2

[11] = test system: sedge, umbrella (small-flower umbrella sedge, Cyperus difformis); experiment: Test B flooded paddy test; details: Flood, 250 g ai/ha; 0 to 100 scale where 0 is no effect and 100 is complete control; 13 to 15 d
Procedure, shortened: (§3)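 Rating scale 0–100 (visual, vs untreated controls) after a 13–15 d greenhouse period; application to the flood layer, 3 cm above soil and maintained; plants at 2-leaf stage when treated.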

[12] = test system: ducksalad (Heteranthera limosa); experiment: Test B flooded paddy test; details: Flood, 250 g ai/ha; 0 to 100 scale where 0 is no effect and 100 is complete control; 13 to 15 d
Procedure, shortened: as §3

[13] = test system: barnyardgrass (Echinochloa crus-galli); experiment: Test B flooded paddy test; details: Flood, 250 g ai/ha; 0 to 100 scale where 0 is no effect and 100 is complete control; 13 to 15 d
Procedure, shortened: as §3

[14] = test system: rice (Oryra sativa); experiment: Test B flooded paddy test; details: Flood, 250 g ai/ha; 0 to 100 scale where 0 is no effect and 100 is complete control; 13 to 15 d
Procedure, shortened: as §3

[15] = test system: ryegrass, Italian (Italian ryegrass, Lolium multiflorum); experiment: Test A postemergence
Procedure, shortened: as §1

[16] = test system: barnyardgrass (Echinochloa crus-galli); experiment: Test A postemergence
Procedure, shortened: as §1

[17] = test system: Kochia (Kochia scoparia); experiment: Test A postemergence
Procedure, shortened: as §1

[18] = test system: giant foxtail (Setaria faberii); experiment: Test A postemergence
Procedure, shortened: as §1

[19] = test system: wheat (Triticum aestivum); experiment: Test A postemergence
Procedure, shortened: as §1

[20] = test system: corn (Zea mays); experiment: Test A postemergence
Procedure, shortened: as §1

[21] = test system: Galium (catchweed bedstraw, Galium aparine); experiment: Test A postemergence
Procedure, shortened: as §1

[22] = test system: blackgrass (Alopecurus myosuroides); experiment: Test A postemergence
Procedure, shortened: as §1

[23] = test system: ragweed (common ragweed, Ambrosia elatior); experiment: Test A postemergence
Procedure, shortened: as §1

[24] = test system: pigweed (Amaranthus retroflexus); experiment: Test A postemergence
Procedure, shortened: as §1

[25] = preemergence, 0 to 100 scale (0 no effect, 100 complete control)
[26] = 125 g ai/ha, postemergence, visual injury rating on 0 to 100 scale (0 no effect, 100 complete control), approx. 10 d
[27] = 500 g ai/ha, postemergence, 0 to 100 scale, 0 no effect, 100 complete control
[28] = Preemergence, visual injury after approximately 10 d, 0 to 100 scale where 0 is no effect and 100 is complete control
[29] = 125 g ai/ha, postemergence, visual rating after approx. 10 d, 0 to 100 scale (0 no effect, 100 complete control)
[30] = Postemergence, 500 g ai/ha, 0 to 100 scale where 0 is no effect and 100 is complete control

O=C1NCC(c2ccc(F)cc2F)C1C(=O)Nc1cccc(F)c1F (stereo not shown) [Compound 455]
Plant response rating, Ryegrass, Italian [1, 25]: 0
Ryegrass, Italian plant response rating (0 to 100 scale, 0 is no effect, 100 is complete control) ([1]; Preemergence): 0
Plant response rating, Barnyardgrass [2, 25]: 70
Barnyardgrass plant response rating (0 to 100 scale, 0 is no effect, 100 is complete control) ([2]; Preemergence): 90
Plant response rating, Kochia [3, 25]: 20
Kochia plant response rating (0 to 100 scale, 0 is no effect, 100 is complete control) ([3]; Preemergence): 50
Plant response rating, Foxtail, Giant [4, 25]: 80
Foxtail, Giant plant response rating (0 to 100 scale, 0 is no effect, 100 is complete control) ([4]; Preemergence): 90
Plant response rating, Ragweed [5, 25]: 0
Ragweed plant response rating (0 to 100 scale, 0 is no effect, 100 is complete control) ([5]; Preemergence, 500 g ai/ha, visual injury approx. 10 d): 0
Plant response rating, Pigweed [6, 25]: 0
Pigweed plant response rating (0 to 100 scale, 0 is no effect, 100 is complete control) ([6]; Preemergence): 50
Plant response rating (scale of 0 to 100), Sedge, Umbrella ([7]; 31 g ai/ha): 0
Plant response rating (scale of 0 to 100), Sedge, Umbrella ([7]; 62 g ai/ha): 0
Plant response rating (scale of 0 to 100), Sedge, Umbrella ([7]; 125 g ai/ha): 0
Plant response rating (scale of 0 to 100), Sedge, Umbrella ([7]; 250 g ai/ha): 0
Plant response rating (scale of 0 to 100), Ducksalad ([8]; 31 g ai/ha): 0
Plant response rating (scale of 0 to 100), Ducksalad ([8]; 62 g ai/ha): 40
Plant response rating (scale of 0 to 100), Ducksalad ([8]; 125 g ai/ha): 80
Plant response rating (scale of 0 to 100), Ducksalad ([8]; 250 g ai/ha): 100
Plant response rating (scale of 0 to 100), Barnyardgrass ([9]; 31 g ai/ha): 0
Plant response rating (scale of 0 to 100), Barnyardgrass ([9]; 62 g ai/ha): 0
Plant response rating (scale of 0 to 100), Barnyardgrass ([9]; 125 g ai/ha): 0
Plant response rating (scale of 0 to 100), Barnyardgrass ([9]; 250 g ai/ha): 50
Plant response rating (scale of 0 to 100), Rice ([10]; 31 g ai/ha): 0
Plant response rating (scale of 0 to 100), Rice ([10]; 62 g ai/ha): 0
Plant response rating (scale of 0 to 100), Rice ([10]; 125 g ai/ha): 0
Plant response rating (scale of 0 to 100), Rice ([10]; 250 g ai/ha): 0
Plant response rating, Sedge, Umbrella [11]: 0
Plant response rating, Ducksalad [12]: 100
Plant response rating, Barnyardgrass [13]: 75
Plant response rating, Rice [14]: 0
Ryegrass, Italian plant response rating [15, 26]: 0
Plant response rating, Ryegrass, Italian [15, 27]: 0
Barnyardgrass plant response rating [16, 26]: 70
Plant response rating, Barnyardgrass [16, 27]: 80
Kochia plant response rating [17, 26]: 60
Plant response rating, Kochia [17, 27]: 70
Foxtail, Giant plant response rating [18, 26]: 70
Plant response rating, Foxtail, Giant [18, 27]: 80
Wheat plant response rating [19, 26]: 0
Plant response rating, Wheat [19, 27]: 30
Corn plant response rating [20, 26]: 0
Plant response rating, Corn [20, 27]: 0
Galium plant response rating [21, 26]: 30
Plant response rating, Galium [21, 27]: 70
Blackgrass plant response rating [22, 26]: 0
Plant response rating, Blackgrass [22, 27]: 0
Ragweed plant response rating [23, 26]: 0
Plant response rating, Ragweed [23, 27]: 0
Pigweed plant response rating [24, 26]: 50
Plant response rating, Pigweed [24, 27]: 60

CN1CC(c2ccc(F)c(C(F)(F)F)c2)C(C(=O)Nc2ccccc2F)C1=O (stereo not shown) [Compound 611]
Plant response rating, Ryegrass, Italian [1, 28]: 60
Ryegrass, Italian plant response rating (0 to 100 scale, 0 is no effect, 100 is complete control) ([1]; Preemergence): 60
Plant response rating, Barnyardgrass [2, 28]: 90
Barnyardgrass plant response rating (0 to 100 scale, 0 is no effect, 100 is complete control) ([2]; Preemergence): 90
Plant response rating, Kochia [3, 28]: 40
Kochia plant response rating (0 to 100 scale, 0 is no effect, 100 is complete control) ([3]; Preemergence): 60
Plant response rating, Foxtail, Giant [4, 28]: 90
Foxtail, Giant plant response rating (0 to 100 scale, 0 is no effect, 100 is complete control) ([4]; Preemergence): 90
Plant response rating, Ragweed [5, 28]: 0
Plant response rating, Pigweed [6, 28]: 70
Pigweed plant response rating (0 to 100 scale, 0 is no effect, 100 is complete control) ([6]; Preemergence): 80
Plant response rating (scale of 0 to 100), Sedge, Umbrella ([7]; 31 g ai/ha): 0
Plant response rating (scale of 0 to 100), Sedge, Umbrella ([7]; 62 g ai/ha): 0
Plant response rating (scale of 0 to 100), Sedge, Umbrella ([7]; 125 g ai/ha): 0
Plant response rating (scale of 0 to 100), Sedge, Umbrella ([7]; 250 g ai/ha): 0
Plant response rating (scale of 0 to 100), Ducksalad ([8]; 31 g ai/ha): 0
Plant response rating (scale of 0 to 100), Ducksalad ([8]; 62 g ai/ha): 0
Plant response rating (scale of 0 to 100), Ducksalad ([8]; 125 g ai/ha): 80
Plant response rating (scale of 0 to 100), Ducksalad ([8]; 250 g ai/ha): 95
Plant response rating (scale of 0 to 100), Barnyardgrass ([9]; 31 g ai/ha): 0
Plant response rating (scale of 0 to 100), Barnyardgrass ([9]; 62 g ai/ha): 0
Plant response rating (scale of 0 to 100), Barnyardgrass ([9]; 125 g ai/ha): 60
Plant response rating (scale of 0 to 100), Barnyardgrass ([9]; 250 g ai/ha): 75
Plant response rating (scale of 0 to 100), Rice ([10]; 31 g ai/ha): 0
Plant response rating (scale of 0 to 100), Rice ([10]; 62 g ai/ha): 0
Plant response rating (scale of 0 to 100), Rice ([10]; 125 g ai/ha): 0
Plant response rating (scale of 0 to 100), Rice ([10]; 250 g ai/ha): 15
Plant response rating, Sedge, Umbrella [11]: 0
Plant response rating, Ducksalad [12]: 100
Plant response rating, Barnyardgrass [13]: 85
Plant response rating, Rice [14]: 40
Plant response rating, Ryegrass, Italian [15, 29]: 40
Plant response rating, Ryegrass, Italian [15, 30]: 70
Plant response rating, Barnyardgrass [16, 29]: 90
Plant response rating, Barnyardgrass [16, 30]: 90
Plant response rating, Kochia [17, 29]: 60
Plant response rating, Kochia [17, 30]: 70
Plant response rating, Foxtail, Giant [18, 29]: 90
Plant response rating, Foxtail, Giant [18, 30]: 90
Plant response rating, Wheat [19, 29]: 40
Plant response rating, Wheat [19, 30]: 60
Plant response rating, Corn [20, 29]: 50
Plant response rating, Corn [20, 30]: 70
Plant response rating, Galium [21, 29]: 50
Plant response rating, Galium [21, 30]: 60
Plant response rating, Blackgrass [22, 29]: 50
Plant response rating, Blackgrass [22, 30]: 70
Plant response rating, Ragweed [23, 29]: 0
Plant response rating, Ragweed [23, 30]: 30
Plant response rating, Pigweed [24, 29]: 20
Plant response rating, Pigweed [24, 30]: 30
